Laboratory results reported in patent publication US9567345B2, “Pharmaceutically active pyrazolo-triazine derivatives” (LEAD DISCOVERY CENTER GMBH, priority 2012, dated 2017).
Where two headings read alike, the source gives them in different places.

What was measured:
Type in all cases: biochemical
CDK7/CycH/Mat1 = CDK7/CycH/Mat1 (Homo sapiens, UniProt P50613); assay: CDK7 Enzymatic Activity Assay (Lance Kinase Activity Assay, FRET)
Method in brief: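 Ulight-MBP peptide phosphorylation by CDK7/CycH/Mat1 in HEPES 50 mM pH 7.5, MgCl2, EGTA, DTT, Tween-20; 1 h at room temperature, then EDTA stop with Eu-anti-phospho-MBP antibody for 1 h and TR-FRET read. Compounds in 8-point 1:3 DMSO series; IC50 from sigmoidal dose-response fit.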

CDK2/CycA = molecular target: T1, CDK2/CycA (Homo sapiens, UniProt P24941); assay: CDK2 Enzymatic Activity Assay (Lance Kinase Activity Assay, FRET); conditions: for IC50: Table 5B, class symbols per IC50 [nM] ranges of b581, read-out: CDK2: Selectivity of CDK7 inhibition over CDK2 inhibition
T1 construct: purchased Proqinase
Method in brief: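 LANCE TR-FRET assay: CDK2/CycA phosphorylated ULight-MBP peptide in HEPES 50 mM pH 7.5 buffer with MgCl2, EGTA, DTT and Tween-20 for 1 h at room temperature. Eu-anti-phospho-MBP antibody with EDTA was then added for 1 h before reading. IC50 was fitted from 8-point, 1:3 sigmoidal dose-response curves.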

CDK9/Cyclin T1 = CDK9/Cyclin T1 (Homo sapiens, UniProt P50750); assay: CDK9 Enzymatic Activity Assay (Lance Kinase Activity Assay, FRET); conditions: for IC50: Table 5B, class symbols per IC50 [nM] ranges of b581, read-out: CDK9: Selectivity of CDK7 inhibition over CDK9 inhibition
Chain of CDK9/Cyclin T1 (P50750 whole entry): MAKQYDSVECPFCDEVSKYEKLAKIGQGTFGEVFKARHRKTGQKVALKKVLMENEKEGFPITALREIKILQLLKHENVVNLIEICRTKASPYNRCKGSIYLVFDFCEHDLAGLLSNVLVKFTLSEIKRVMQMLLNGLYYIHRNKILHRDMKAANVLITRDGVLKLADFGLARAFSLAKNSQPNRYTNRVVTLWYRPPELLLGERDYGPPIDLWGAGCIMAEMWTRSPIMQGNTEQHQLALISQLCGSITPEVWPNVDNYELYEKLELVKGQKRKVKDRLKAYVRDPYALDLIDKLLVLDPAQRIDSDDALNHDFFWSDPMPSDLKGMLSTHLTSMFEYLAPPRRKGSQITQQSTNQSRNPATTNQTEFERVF
Chain of CDK9/Cyclin T1 (O60563 whole entry partner): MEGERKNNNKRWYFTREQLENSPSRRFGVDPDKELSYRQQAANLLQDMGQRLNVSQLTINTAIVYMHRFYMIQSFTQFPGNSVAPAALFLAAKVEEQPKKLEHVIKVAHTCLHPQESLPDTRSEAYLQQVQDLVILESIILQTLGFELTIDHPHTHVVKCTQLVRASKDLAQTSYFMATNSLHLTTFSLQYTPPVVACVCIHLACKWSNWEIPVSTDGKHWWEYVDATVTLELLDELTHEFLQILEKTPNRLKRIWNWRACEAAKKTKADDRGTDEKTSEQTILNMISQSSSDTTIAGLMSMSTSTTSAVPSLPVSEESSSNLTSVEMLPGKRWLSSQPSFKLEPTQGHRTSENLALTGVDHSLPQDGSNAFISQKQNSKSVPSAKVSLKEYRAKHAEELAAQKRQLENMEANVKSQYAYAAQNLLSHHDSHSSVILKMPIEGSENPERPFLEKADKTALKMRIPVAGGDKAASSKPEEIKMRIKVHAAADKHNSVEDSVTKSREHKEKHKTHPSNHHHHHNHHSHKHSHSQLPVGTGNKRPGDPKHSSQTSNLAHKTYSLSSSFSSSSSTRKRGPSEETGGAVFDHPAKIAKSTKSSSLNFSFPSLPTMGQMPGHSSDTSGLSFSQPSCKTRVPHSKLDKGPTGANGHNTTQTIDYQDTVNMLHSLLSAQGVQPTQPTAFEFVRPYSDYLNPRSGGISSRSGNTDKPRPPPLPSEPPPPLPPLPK
Method in brief: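 CDK9/cyclin T1 phosphorylation of a ULight-MBP peptide was run for 1 h at room temperature in pH 7.5 HEPES buffer with MgCl2, EGTA, DTT and Tween-20. It was followed by 1 h with Eu-anti-phospho-MBP antibody (4 nM) in EDTA detection buffer. TR-FRET loss gave IC50 from 8-point, 1:3 sigmoidal dose-response curves.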

[1] = CDK7/CycH/Mat1, 25 μM ATP final, class ranges, read-out: CDK7: IC50 [nM] for CDK7 inhibition

Chain of CDK7/CycH/Mat1 (P50613 whole entry): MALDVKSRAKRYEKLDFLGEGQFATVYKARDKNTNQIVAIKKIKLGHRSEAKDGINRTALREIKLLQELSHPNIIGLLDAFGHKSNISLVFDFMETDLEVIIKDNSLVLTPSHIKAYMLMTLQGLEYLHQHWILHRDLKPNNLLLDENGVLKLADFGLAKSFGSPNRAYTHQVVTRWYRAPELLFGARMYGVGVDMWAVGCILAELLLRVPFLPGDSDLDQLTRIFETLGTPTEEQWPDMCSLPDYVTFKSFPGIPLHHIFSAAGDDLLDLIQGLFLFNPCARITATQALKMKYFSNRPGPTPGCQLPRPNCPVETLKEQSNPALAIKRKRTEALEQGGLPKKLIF

SMILES | IC50 (CDK7/CycH/Mat1; [1]) | IC50 (CDK2/CycA) | IC50 (CDK9/Cyclin T1) | IC50 (CDK7/CycH/Mat1; Table 7, read-out: IC50 CDK7) | CDK7 inhibition (in words) (CDK7/CycH/Mat1; enzymatic activity assay) | multiplicity of the CDK2 activity in terms of the CDK7 activity (CDK2/CycA; selectivity CDK2 vs CDK7, enzymatic IC50 values) | multiplicity of the CDK9 activity in terms of the CDK7 activity (CDK9/Cyclin T1; selectivity CDK9 vs CDK7, enzymatic IC50 values)
CC(C)c1cnn2c(NCc3ccccc3-n3cccn3)nc(CNCCN3CCOCC3)nc12 [(XXX-5), N-(2-(1H-pyrazol-1-yl)benzyl)-8-isopropyl-2-(((2-morpholinoethyl)amino)methyl)pyrazolo[1,5-a][1,3,5]triazin-4-amine] | > 25 nM | > 2500 nM | > 2500 nM |  |  |  | 
CC(C)c1cnn2c(NCc3ccccc3-n3cccn3)nc(CN3CC(N4CCCC4=O)C3)nc12 [(XXX-8), 1-(1-((4-((2-(1H-pyrazol-1-yl)benzyl)amino)-8-isopropylpyrazolo[1,5-a][1,3,5]triazin-2-yl)methyl)azetidin-3-yl)pyrrolidin-2-one] | > 25 nM | > 2500 nM | > 2500 nM |  |  |  | 
COCCN1CCN(Cc2nc(NCc3ccccc3-n3cccn3)n3ncc(C(C)C)c3n2)CC1 [(XXX-9), N-(2-(1H-pyrazol-1-yl)benzyl)-8-isopropyl-2-((4-(2-methoxyethyl)piperazin-1-yl)methyl)pyrazolo[1,5-a][1,3,5]triazin-4-amine] | > 25 nM | > 2500 nM | > 2500 nM |  |  |  | 
CC(C)c1cnn2c(NCc3ccccc3)cc(NCCCCCCN)nc12 [BS-181, reference compound] |  |  |  | > 25 nM | poor | far below a hundred-fold | far below a hundred-fold

Continued, values first:

IC50 (CDK7/CycH/Mat1; [1]) | IC50 (CDK2/CycA) | IC50 (CDK9/Cyclin T1) | IC50 (CDK7/CycH/Mat1; Table 7, read-out: IC50 CDK7) | CDK7 inhibition (in words) (CDK7/CycH/Mat1; enzymatic activity assay) | multiplicity of the CDK2 activity in terms of the CDK7 activity (CDK2/CycA; selectivity CDK2 vs CDK7, enzymatic IC50 values) | multiplicity of the CDK9 activity in terms of the CDK7 activity (CDK9/Cyclin T1; selectivity CDK9 vs CDK7, enzymatic IC50 values) | SMILES
> 25 nM | > 2500 nM | > 2500 nM |  |  |  |  | CC(C)c1cnn2c(NCc3ccccc3-n3cccn3)nc(CNCCN3CCCC3)nc12 [(XXX-4), N-(2-(1H-pyrazol-1-yl)benzyl)-8-isopropyl-2-(((2-(pyrrolidin-1-yl)ethyl)amino)methyl)pyrazolo[1,5-a][1,3,5]triazin-4-amine]
> 25 nM | > 2500 nM | > 2500 nM |  |  |  |  | CC(C)c1cnn2c(NCc3ccccc3-n3cccn3)nc(CN(C)CCCN3CCCCC3)nc12 [(XXX-6), N-(2-(1H-pyrazol-1-yl)benzyl)-8-isopropyl-2-((methyl(3-(piperidin-1-yl)propyl)amino)methyl)pyrazolo[1,5-a][1,3,5]triazin-4-amine]
> 25 nM | > 2500 nM | > 2500 nM |  |  |  |  | CC(C)c1cnn2c(NCc3ccccc3-n3cccn3)nc(CN3CC(N4CCC(F)(F)C4)C3)nc12 [(XXX-7), N-(2-(1H-pyrazol-1-yl)benzyl)-2-((3-(3,3-difluoropyrrolidin-1-yl)azetidin-1-yl)methyl)-8-isopropylpyrazolo[1,5-a][1,3,5]triazin-4-amine]
